Measured values taken from patent US5045549A, “Substituted 4-pyridone 3-carboxylic acid derivatives, method for their production and their pharmaceutical compositions” (priority 1986, dated 1991).
In brackets after ≈: the same amount, converted by molar mass. Like-named read-outs stand apart in the source and are kept apart here.

Key:
Test in all cases: MIC agar dilution assay (Table III)
Type in all cases: cell-based
CITRO DIV = details: 18 CITRO DIV K 82 24; 18 Hrs, 35 Celsius; read-out: MINIMAL INHIBITORY CONC.
Procedure: (§1) The results are summarized in Table III. |TEST: 406 METHOD: […] |MEDIUM: […] |INCUBATION: 18 Hrs. 35 Celsius | Aerobic: T

ESCH COLI = details: 18 h, read-out: MINIMAL INHIBITORY CONC.
Procedure: as §1

PROV STUA = details: 17 PROV STUA CMC 83 3; 18 Hrs, 35 Celsius; read-out: MINIMAL INHIBITORY CONC.
Procedure: as §1

PSEU AERUG = details: 18 h, read-out: MINIMAL INHIBITORY CONC.
Procedure: as §1

STREP FAEC = details: 18 h, read-out: MINIMAL INHIBITORY CONC.
Procedure: as §1

ENTERO CLO = details: 18 h, read-out: MINIMAL INHIBITORY CONC.
Procedure: (§2) TEST: 406 METHOD: AGAR DIL
(§3) MEDIUM: MUEL-HIN INOCULUM: 1.OE+04 - 5.OE+04
(§4) INCUBATION: 18 Hrs. 35 Celsius

KLEB PNEUM = details: 18 h, read-out: MINIMAL INHIBITORY CONC.
Procedure: as §2, §3, §4

MORG MORG = details: 18 h, read-out: MINIMAL INHIBITORY CONC.
Procedure: as §2, §3, §4

PROT RETT = details: 16 PROT RETT IO 83 21; 18 Hrs, 35 Celsius; read-out: MINIMAL INHIBITORY CONC.
Procedure: as §2, §3, §4

SERRAT MARC = details: 18 h, read-out: MINIMAL INHIBITORY CONC.
Procedure: as §2, §3, §4

STAPH AUR = details: 18 h, read-out: MINIMAL INHIBITORY CONC.
Procedure: as §2, §3, §4

[1] = 1 ESCH COLI MOR 84 20, 35 Celsius
[2] = 2 ESCH COLI VGH 84 19, 35 Celsius
[3] = 3 ESCH COLI CMC 84 50, 35 Celsius
[4] = 28 ESCH COLI ATCC 25922, 35 Celsius
[5] = 19 PSEU AERUG K 84 16, 35 Celsius
[6] = 20 PSEU AERUG VGH 84 3, 35 Celsius
[7] = 21 PSEU AERUG CMC 83 20, 35 Celsius
[8] = 25 STREP FAEC UCI 85 30, 35 Celsius
[9] = 26 STREP FAEC VGH 84 69, 35 Celsius
[10] = 27 STREP FAEC CMC 83 120, 35 Celsius
[11] = 7 ENTERO CLO VGH 84 39, 35 Celsius
[12] = 8 ENTERO CLO K 84 10, 35 Celsius
[13] = 9 ENTERO CLO MOR 84 30, 35 Celsius
[14] = 4 KLEB PNEUM CMC 84 31, 35 Celsius
[15] = 5 KLEB PNEUM MOR 84 24, 35 Celsius
[16] = 6 KLEB PNEUM IO 83 5, 35 Celsius
[17] = 13 MORG MORG VGH 84 12, 35 Celsius
[18] = 14 MORG MORG CMC 84 38, 35 Celsius
[19] = 15 MORG MORG MOR 84 45, 35 Celsius
[20] = 10 SERRAT MARC MOR 84 41, 35 Celsius
[21] = 11 SERRAT MARC CMC 83 74, 35 Celsius
[22] = 12 SERRAT MARC IO 83 63, 35 Celsius
[23] = 22 STAPH AUR VGH 84 47, 35 Celsius
[24] = 23 STAPH AUR K 82 26, 35 Celsius
[25] = 24 STAPH AUR CMC 83 131, 35 Celsius
[26] = 29 STAPH AUR ATCC 29213, 35 Celsius

CN1CC2CC1CN2c1cc2c(cc1F)c(=O)c(C(=O)O)cn2-c1ccc(F)cc1F (stereo not shown) [Example 9, 6-Fluoro-1-(2,4-difluorophenyl)-1,4-dihydro7-(5-methyl-2,5-diazabicyclo(2.2.1)hept-2-yl)-4-oxoquinoline-3-carboxylic acid] gave an MIC (CITRO DIV) of 0.03 µg/mL (≈ 0.0699 µM), an MIC (ESCH COLI; [1]) of 0.015 µg/mL (≈ 0.0349 µM) and an MIC (ESCH COLI; [2]) of 0.015 µg/mL (≈ 0.0349 µM). It also gave an MIC (ESCH COLI; [3]) of 0.06 µg/mL (≈ 0.14 µM), an MIC (ESCH COLI; [4]) of 0.03 µg/mL (≈ 0.0699 µM) and an MIC (PROV STUA) of 4 µg/mL (≈ 9.32 µM). The MIC (PSEU AERUG; [5]) was 1 µg/mL (≈ 2.33 µM), the MIC (PSEU AERUG; [6]) was 4 µg/mL (≈ 9.32 µM) and the MIC (PSEU AERUG; [7]) was 0.5 µg/mL (≈ 1.16 µM). It also gave an MIC (STREP FAEC; [8]) of 0.5 µg/mL (≈ 1.16 µM), an MIC (STREP FAEC; [9]) of 0.5 µg/mL (≈ 1.16 µM) and an MIC (STREP FAEC; [10]) of 0.5 µg/mL (≈ 1.16 µM). For the same compound, the MIC (ENTERO CLO; [11]) was 0.06 µg/mL (≈ 0.14 µM), the MIC (ENTERO CLO; [12]) was 0.03 µg/mL (≈ 0.0699 µM) and the MIC (ENTERO CLO; [13]) was 0.06 µg/mL (≈ 0.14 µM). It also gave an MIC (KLEB PNEUM; [14]) of 0.06 µg/mL (≈ 0.14 µM), an MIC (KLEB PNEUM; [15]) of 0.06 µg/mL (≈ 0.14 µM) and an MIC (KLEB PNEUM; [16]) of 0.12 µg/mL (≈ 0.279 µM). For the same compound, the MIC (MORG MORG; [17]) was 0.25 µg/mL (≈ 0.582 µM), the MIC (MORG MORG; [18]) was 0.25 µg/mL (≈ 0.582 µM) and the MIC (MORG MORG; [19]) was 0.12 µg/mL (≈ 0.279 µM). The MIC (PROT RETT) was 0.06 µg/mL (≈ 0.14 µM), the MIC (SERRAT MARC; [20]) was 0.12 µg/mL (≈ 0.279 µM) and the MIC (SERRAT MARC; [21]) was 4 µg/mL (≈ 9.32 µM). It also gave an MIC (SERRAT MARC; [22]) of 0.5 µg/mL (≈ 1.16 µM), an MIC (STAPH AUR; [23]) of 0.03 µg/mL (≈ 0.0699 µM) and an MIC (STAPH AUR; [24]) of 0.015 µg/mL (≈ 0.0349 µM). It also gave an MIC (STAPH AUR; [25]) of 0.5 µg/mL (≈ 1.16 µM) and an MIC (STAPH AUR; [26]) of 0.03 µg/mL (≈ 0.0699 µM).
In the case of O=C(O)c1cn(-c2ccc(F)cc2F)c2cc(N3CC4CC3CN4)c(F)cc2c1=O (stereo not shown) [Example 11, 7-(2,5-diazabicyclo(2.2.1)hept-2-yl)-6-fluoro-1-(2,4-difluorophenyl)-1,4-dihydro-4-oxoquinoline3-carboxylic acid], the MIC (CITRO DIV) is reported as 0.008 µg/mL (≈ 0.0193 µM), the MIC (ESCH COLI; [1]) is reported as 0.008 µg/mL (≈ 0.0193 µM) and the MIC (ESCH COLI; [2]) is reported as 0.008 µg/mL (≈ 0.0193 µM). It also gave an MIC (ESCH COLI; [3]) of 0.03 µg/mL (≈ 0.0722 µM), an MIC (ESCH COLI; [4]) of 0.008 µg/mL (≈ 0.0193 µM) and an MIC (PROV STUA) of 2 µg/mL (≈ 4.81 µM). The MIC (PSEU AERUG; [5]) was 0.5 µg/mL (≈ 1.2 µM), the MIC (PSEU AERUG; [6]) was 1 µg/mL (≈ 2.41 µM) and the MIC (PSEU AERUG; [7]) was 0.25 µg/mL (≈ 0.602 µM). For the same compound, the MIC (STREP FAEC; [8]) was 0.5 µg/mL (≈ 1.2 µM), the MIC (STREP FAEC; [9]) was 0.5 µg/mL (≈ 1.2 µM) and the MIC (STREP FAEC; [10]) was 0.5 µg/mL (≈ 1.2 µM). It also gave an MIC (ENTERO CLO; [11]) of 0.03 µg/mL (≈ 0.0722 µM), an MIC (ENTERO CLO; [12]) of 0.015 µg/mL (≈ 0.0361 µM) and an MIC (ENTERO CLO; [13]) of 0.03 µg/mL (≈ 0.0722 µM). It also gave an MIC (KLEB PNEUM; [14]) of 0.03 µg/mL (≈ 0.0722 µM), an MIC (KLEB PNEUM; [15]) of 0.06 µg/mL (≈ 0.144 µM) and an MIC (KLEB PNEUM; [16]) of 0.06 µg/mL (≈ 0.144 µM). It also gave an MIC (MORG MORG; [17]) of 0.06 µg/mL (≈ 0.144 µM), an MIC (MORG MORG; [18]) of 0.12 µg/mL (≈ 0.289 µM) and an MIC (MORG MORG; [19]) of 0.03 µg/mL (≈ 0.0722 µM). For the same compound, the MIC (PROT RETT) was 0.03 µg/mL (≈ 0.0722 µM), the MIC (SERRAT MARC; [20]) was 0.06 µg/mL (≈ 0.144 µM) and the MIC (SERRAT MARC; [21]) was 4 µg/mL (≈ 9.63 µM). The MIC (SERRAT MARC; [22]) was 0.25 µg/mL (≈ 0.602 µM), the MIC (STAPH AUR; [23]) was 0.25 µg/mL (≈ 0.602 µM) and the MIC (STAPH AUR; [24]) was 0.12 µg/mL (≈ 0.289 µM). For the same compound, the MIC (STAPH AUR; [25]) was 0.25 µg/mL (≈ 0.602 µM) and the MIC (STAPH AUR; [26]) was 0.25 µg/mL (≈ 0.602 µM).
